According to PMC5740381 (Antimicrobial Agents and Chemotherapy, 2017):
Like-named read-outs stand apart in the source and are kept apart here.

Tests used:
[1] = test system: HCV subgenomic stable replicon GT6e; assay: microbe, parasite or virus in culture; assay type: cell-based, Hepatitis C virus; settings: Hepatitis C virus, Huh-7, 0% human plasma, read-out: Mean EC50 ± SD
Source text: (§1) Five of these nine cell lines have been described previously, including those transfected with genotypes 1a H77, 1b Con1, 3a, 4a, and 6a ([28]). […] The genotype 2b and 6e NS3 sequences were each synthetically constructed based on a consensus sequence derived from the alignment of 15 genotype 2b and 4 genotype 6e sequences, respectively. All replicon constructs were bicistronic subgenomic replicons similar to those described by Bartenschlager and coworkers, and the replicon cell lines were generated by introducing these constructs into cells of an Huh-7 human hepatoma-derived cell line ([50]). The inhibitory effect of the PIs on HCV replication in replicon cells was determined in Dulbecco's modified Eagle medium containing 5% fetal bovine serum with or without 40% human plasma (Bioreclamation, Westbury, NY). The EC50s were determined using nonlinear regression curve fitting as described previously ([33]).

[2] = test system: HCV subgenomic stable replicon GT3a; assay: microbe, parasite or virus in culture; assay type: cell-based, Hepatitis C virus; settings: Hepatitis C virus, Huh-7, 0% human plasma, read-out: Mean EC50 ± SD
Source text: as §1

HCV genotype 5a replicon = assay: Transient replicon assay with engineered substitutions; assay type: cell-based, Hepatitis C virus
Protocol: (§2) Mutagenesis was performed using a Change-IT multiple-mutation site-directed mutagenesis kit (USB, Cleveland, OH) or by cloning a synthesized DNA fragment encoding the amino acid substitution(s). The genotype 1a and 1b replicon shuttle vectors used for the introduction of the substitutions of interest in the NS3, NS5A, or NS5B gene for transient-transfection assays have been described previously ([28], [33]). The replicon shuttle vectors used for the introduction of substitutions in NS3 genes from other genotypes were similar to the stable replicon cell line constructs described above, except for the absence of the neo gene. After mutagenesis, the plasmids were linearized and RNA was transcribed and then used to transfect Huh-7 cells. Inhibition of HCV replication by the HCV inhibitors was measured by luciferase assay, as described above. Replication efficiency was calculated as a percentage of wild-type replication, as described previously ([28]).

HCV genotype 3a replicon = assay: as above; assay type: cell-based, Hepatitis C virus; settings: for EC50: Hepatitis C virus
Protocol: as §2

HCV genotype 4a replicon = assay: as above; assay type: cell-based, Hepatitis C virus; settings: for EC50: Hepatitis C virus
Protocol: as §2

HCV genotype 6a replicon = assay: as above; assay type: cell-based, Hepatitis C virus; settings: for EC50: Hepatitis C virus
Protocol: as §2

HCV genotype 4d replicon = assay: as above; assay type: cell-based, Hepatitis C virus; settings: for EC50: Hepatitis C virus, 96 h
Protocol: as §2

HCV genotype 1a replicon = assay: as above; assay type: cell-based, Hepatitis C virus
Protocol: as §2

HCV genotype 2b replicon = assay: as above; assay type: cell-based, Hepatitis C virus; settings: for EC50: Hepatitis C virus
Protocol: as §2

HCV genotype 2a replicon = assay: as above; assay type: cell-based, Hepatitis C virus
Protocol: as §2

[3] = test system: HCV subgenomic stable replicon GT2b; assay: Stable HCV replicon luciferase assay in Huh-7 cells; assay type: cell-based; settings: Hepatitis C virus, 0% human plasma, read-out: Mean EC50 ± SD
Source text: as §1

[4] = test system: HCV subgenomic stable replicon GT6a; assay: as above; assay type: cell-based, Hepatitis C virus; settings: Hepatitis C virus, Huh-7, 0% human plasma, read-out: Mean EC50 ± SD
Source text: (§3) . Five of these nine cell lines have been described previously, including those transfected with genotypes 1a H77, 1b Con1, 3a, 4a, and 6a ([28]). The other four cell lines were established by transfecting cells with a nonchimeric genotype 2a JFH-1 replicon (GenBank accession number AB047639), two genotype 2a JFH-1 chimeric replicons containing either a genotype 2b NS3 protease domain (N-terminal 251 amino acids) or a sequence encoding full-length NS3 through the first 39 amino acids of NS5B from genotype 5a (strain SA13), and one chimeric replicon with a genotype 1b Con1 backbone containing full-length NS3 and NS4A sequences from genotype 6e. The genotype 2b and 6e NS3 sequences were each synthetically constructed based on a consensus sequence derived from the alignment of 15 genotype 2b and 4 genotype 6e sequences, respectively. All replicon constructs were bicistronic subgenomic replicons similar to those described by Bartenschlager and coworkers, and the replicon cell lines were generated by introducing these constructs into cells of an Huh-7 human hepatoma-derived cell line ([50]). The inhibitory effect of the PIs on HCV replication in replicon cells was determined in Dulbecco's modified Eagle medium containing 5% fetal bovine serum with or without 40% human plasma (Bioreclamation, Westbury, NY). The EC50s were determined using nonlinear regression curve fitting as described previously ([33]).

[5] = test system: HCV subgenomic stable replicon GT4a; assay: as above; assay type: cell-based, Hepatitis C virus; settings: Hepatitis C virus, Huh-7, 0% human plasma, read-out: Mean EC50 ± SD
Source text: as §3

**Q.** What does the source list for `Cc1cnc(C(=O)N[C@H]2CCCCC/C=C\[C@@H]3C[C@@]3(C(=O)NS(=O)(=O)C3CC3)NC(=O)[C@@H]3C[C@@H](Oc4nc5ccccc5c5ccccc45)CN3C2=O)cn1` [Paritaprevir]?
**A.** EC50 [1]: 0.44 ± 0.17 nM; EC50 [2]: 19 ± 5.2 nM; Fold change (HCV genotype 5a replicon; 5a NS3 D168E vs wild-type replicon): 23 fold; Fold change (HCV genotype 5a replicon; 5a NS3 D168H vs wild-type replicon): 558 fold; Fold change (HCV genotype 3a replicon; 3a NS3 A156G vs wild-type replicon): 57 fold; Fold change (HCV genotype 3a replicon; 3a NS3 Q168R vs wild-type replicon): 29 fold; Fold change (HCV genotype 3a replicon; 3a NS3 R155K vs wild-type replicon): 5.2 fold; EC50 (HCV genotype 3a replicon; read-out: Mean EC50 ± SD, 3a NS3 A156G): 1770 nM; EC50 (HCV genotype 3a replicon; read-out: Mean EC50 ± SD, 3a NS3 Q168R): 912 ± 221 nM; EC50 (HCV genotype 3a replicon; read-out: Mean EC50 ± SD, 3a NS3 R155K): 161 ± 20 nM; EC50 (HCV genotype 3a replicon; read-out: Mean EC50 ± SD, 3a wild type, transient transfection): 31 ± 7 nM; Fold change (HCV genotype 4a replicon; 4a NS3 A156T vs wild-type replicon): 40 fold; Fold change (HCV genotype 4a replicon; 4a NS3 A156V vs wild-type replicon): 155 fold; Fold change (HCV genotype 4a replicon; 4a NS3 D168H vs wild-type replicon): 252 fold; Fold change (HCV genotype 4a replicon; 4a NS3 D168V vs wild-type replicon): 323 fold; Fold change (HCV genotype 4a replicon; 4a NS3 R155C vs wild-type replicon): 59 fold; EC50 (HCV genotype 4a replicon; read-out: Mean EC50 ± SD, 4a NS3 A156T): 1.9 ± 0.25 nM; EC50 (HCV genotype 4a replicon; read-out: Mean EC50 ± SD, 4a NS3 A156V): 7.4 ± 1.6 nM; EC50 (HCV genotype 4a replicon; read-out: Mean EC50 ± SD, 4a NS3 D168H): 12 ± 3 nM; EC50 (HCV genotype 4a replicon; read-out: Mean EC50 ± SD, 4a NS3 D168V): 16 ± 1.9 nM; EC50 (HCV genotype 4a replicon; read-out: Mean EC50 ± SD, 4a NS3 R155C): 2.8 ± 0.25 nM; EC50 (HCV genotype 4a replicon; read-out: Mean EC50 ± SD, 4a wild type, transient transfection): 0.048 ± 0.01 nM; Fold change (HCV genotype 6a replicon; 6a NS3 D168A vs wild-type replicon): 1,347 fold; Fold change (HCV genotype 6a replicon; 6a NS3 D168H vs wild-type replicon): 2,490 fold; Fold change (HCV genotype 6a replicon; 6a NS3 D168V vs wild-type replicon): 3,336 fold; EC50 (HCV genotype 6a replicon; read-out: Mean EC50 ± SD, 6a NS3 D168A): 162 ± 80 nM; EC50 (HCV genotype 6a replicon; read-out: Mean EC50 ± SD, 6a NS3 D168H): 299 ± 87 nM; EC50 (HCV genotype 6a replicon; read-out: Mean EC50 ± SD, 6a NS3 D168V): 400 ± 139 nM; EC50 (HCV genotype 6a replicon; read-out: Mean EC50 ± SD, 6a wild type, transient transfection): 0.12 ± 0.04 nM; Fold change (HCV genotype 4d replicon; 4d NS3 D168V vs wild-type replicon): 312 fold; EC50 (HCV genotype 4d replicon; read-out: Mean EC50 ± SD, 4d NS3 D168V): 4.7 ± 0.91 nM; EC50 (HCV genotype 4d replicon; read-out: Mean EC50 ± SD, 4d wild type, transient transfection): 0.015 ± 0.001 nM; Fold change (HCV genotype 1a replicon; 1a NS3 A156T vs wild-type replicon): 17 fold; Fold change (HCV genotype 1a replicon; 1a NS3 D168A vs wild-type replicon): 50 fold; Fold change (HCV genotype 1a replicon; 1a NS3 D168E vs wild-type replicon): 14 fold; Fold change (HCV genotype 1a replicon; 1a NS3 D168V vs wild-type replicon): 96 fold; Fold change (HCV genotype 1a replicon; 1a NS3 F43L vs wild-type replicon): 20 fold; Fold change (HCV genotype 1a replicon; 1a NS3 Q80K vs wild-type replicon): 2.8 fold; Fold change (HCV genotype 1a replicon; 1a NS3 R155K vs wild-type replicon): 37 fold; Fold change (HCV genotype 1a replicon; 1a NS3 T54S vs wild-type replicon): 0.4 fold; Fold change (HCV genotype 1a replicon; 1a NS3 V36M vs wild-type replicon): 2.1 fold; Fold change (HCV genotype 1a replicon; 1a NS3 V55I vs wild-type replicon): 1.0 fold; Fold change (HCV genotype 1a replicon; 1a NS3 Y56H vs wild-type replicon): 2.9 fold; Fold change (HCV genotype 2b replicon; 2b NS3 A156T vs wild-type replicon): 3.0 fold; Fold change (HCV genotype 2b replicon; 2b NS3 A156V vs wild-type replicon): 5.0 fold; Fold change (HCV genotype 2b replicon; 2b NS3 D168A vs wild-type replicon): 11 fold; Fold change (HCV genotype 2b replicon; 2b NS3 D168E vs wild-type replicon): 2.2 fold; Fold change (HCV genotype 2b replicon; 2b NS3 D168V vs wild-type replicon): 9.4 fold; EC50 (HCV genotype 2b replicon; read-out: Mean EC50 ± SD, 2b NS3 A156T): 338 ± 86 nM; EC50 (HCV genotype 2b replicon; read-out: Mean EC50 ± SD, 2b NS3 A156V): 573 ± 204 nM; EC50 (HCV genotype 2b replicon; read-out: Mean EC50 ± SD, 2b NS3 D168A): 1310 nM; EC50 (HCV genotype 2b replicon; read-out: Mean EC50 ± SD, 2b NS3 D168E): 256 ± 58 nM; EC50 (HCV genotype 2b replicon; read-out: Mean EC50 ± SD, 2b NS3 D168V): 1070 nM; EC50 (HCV genotype 2b replicon; read-out: Mean EC50 ± SD, 2b wild type, transient transfection): 114 ± 24 nM; Fold change (HCV genotype 2a replicon; 2a NS3 A156T vs wild-type replicon): 1.7 fold; Fold change (HCV genotype 2a replicon; 2a NS3 A156V vs wild-type replicon): 2.2 fold; Fold change (HCV genotype 2a replicon; 2a NS3 D168A vs wild-type replicon): 18 fold; Fold change (HCV genotype 2a replicon; 2a NS3 D168E vs wild-type replicon): 5.3 fold; Fold change (HCV genotype 2a replicon; 2a NS3 D168V vs wild-type replicon): 13 fold; EC50 [3]: 107 ± 17 nM; EC50 [4]: 0.69 ± 0.09 nM; EC50 [5]: 0.09 ± 0.03 nM
